The values that follow come from patent US20130273179A1, “SYSTEM AND METHOD FOR IMPROVING OUTCOME OF CEREBRAL ISCHEMIA” (ASTUCE, INC., priority 2012, published 2013).

One data set concerns cerebral blood flow. Nature of the data set: Cerebral blood flow by cortical laser Doppler during intranasal nitric oxide in intubated rodents. In kind it is in vivo. The conditions noted are these: intranasal non-inhaled delivery, within 60 minutes. How it is done:
(§1) In intubated rodents, the inventors have shown that cerebral blood flow increases by 100% within 60 minutes of intranasal nitric oxide delivery.

The subject of data set [1] is cerebral ischemia (carotid artery occlusion model). Nature of the data set: Carotid artery occlusion model, Speckle laser Doppler, intubated rodents. Format: in vivo. The conditions noted are these: both during the carotid occlusion and following ligature release. As to the method:
as §1

The test system of another data set is cerebral perfusion. Nature of the data set: CT perfusion scanning before and after intranasal nitric oxide in intubated patients with focal cerebral ischemia. In kind it is in vivo, human.
Data set [2] in a line: Tolerability of intranasal nitric oxide in awake humans (normal volunteers). In kind it is in vivo, human. The text has this:
While nitric oxide may be given intranasally and without inhalation into the lungs to intubated, comatose individuals the tolerability of intranasal nitric oxide in awake humans has not previously been investigated. The inventors have tested the effect of nitric oxide in humans (normal volunteers) during intranasal delivery. […] Therefore it can easily be tolerated by awake, non-intubated patients.

Take `[N]=O` [nitric oxide]: in the data set with cerebral blood flow, the “cerebral blood flow increase” value is 100%. Further, the “perfusion in the ischemic hemisphere” value in data set [1] is recorded as “perfusion is improved in the ischemic hemisphere”. Also, in the data set on cerebral perfusion (Post Rx), the “Cerebral Blood Flow, Changes in ACA Watershed” value is recorded as “Normalization,” and the “Mean Transit Time, Changes in ACA Watershed” value is “Normalization”. In the data set on cerebral perfusion (Post Rx vs Pre Rx, left (ischemic) hemisphere), the “Cerebral Blood Flow, Changes in ACA Watershed: increase in perfusion on L” value came to 67% increase in. Besides, the “Mean Transit Time, Right Hemisphere (normal)” value in the data set with cerebral perfusion (Post Rx, one hour of intranasal non-inhaled nitric oxide (Pre Rx 6)) turned out to be 6.1 s. Also, in the data set with cerebral perfusion (Post Rx, one hour of intranasal non-inhaled nitric oxide (Pre Rx 10)), the “Mean Transit Time, Left Hemisphere (ischemic)” value is 6.0 s. Also, the “Cerebral Blood Flow, Left Hemisphere (ischemic)” value with cerebral perfusion (Post Rx, one hour of intranasal non-inhaled nitric oxide (Pre Rx 31)) is listed as 52. Further, the “Cerebral Blood Flow, Right Hemisphere (normal)” value in the data set on cerebral perfusion (Post Rx, one hour of intranasal non-inhaled nitric oxide (Pre Rx 49)) stood at 45. In addition, the “cerebral perfusion during treatment (CT perfusion scanning)” value in the data set on cerebral perfusion (intubated patients with cerebral ischemia) is “augmentation of cerebral perfusion and normalization of regional perfusion abnormalities”. For the same compound, the “tolerability of gas treatment” value in data set [2] (humans, high concentration, intra-nasally and without inhalation) is reported as “tolerated at high concentration”. In addition, the “sensation during intranasal delivery” value in data set [2] (normal volunteers, concentrations up to 100 PPM) is “does not elicit any sensation”.
